Results: patent US5272155A, “(+)-2-methylpiperidine as modulator of cholinergic systems” (Abbott Laboratories, priority 1991, dated 1993)
Entries after “also recorded” stand apart in the source; their conditions may differ. Read-outs that look alike come from different tables or passages of the source.

Columns and labels:
nicotinic receptor [1] = assay: Resting cortical cerebral blood flow (CBF) in rats, iv administration; assay type: in vivo, rat; conditions: for Resting Cortical CBF, % of Resting CONTROL: mean (SEM), (+) N = 5 rats, (-) N = 3 rats; for effect on resting CBF: 0.1-3.0 mg/kg, result in words
Procedure: (§1) Methods for surgical preparations of rats for electrical stimulation of brain and measurement of cortical CBF are detailed by Linville and Arneric (1991).
(§2) Intravenous (iv) administration of (+) 2-methylpiperidine ((+)2-MP) and (-)2-MP (0.1-3.0 mg/kg) were examined for their effect on mean arterial pressure (MAP), resting CBF and increases in cortical CBF elicited by electrically stimulating the BF (.perspectiveto.25 Hz; 100 uA; 10 sec. train).

nicotinic receptor [2] = assay: Cortical CBF response elicited by electrical stimulation of the basal forebrain (BF) in rats; assay type: in vivo, rat; conditions: iv; for BF-Elicited CBF Response, % of Resting Cortical CBF: mean (SEM), (+) N = 5 rats, (-) N = 3 rats; for effect on BF-elicited CBF response: 0.1-3.0 mg/kg, result in words
Procedure: as §1, §2

[3] = Mean arterial pressure (MAP) in rats, iv administration; assay type: in vivo, rat; conditions: for Mean Arterial Pressure (MAP): mean (SEM), (+) N = 5 rats, (-) N = 3 rats; for effect on mean arterial pressure / blood pressure: 0.1-3.0 mg/kg, result in words
Procedure: as §1, §2

CD1 mice [4] = assay: Mouse elevated-plus maze (conflict test, anxiolytic activity); assay type: in vivo
Procedure: FIG. 1A is a graph of time mice spend in the open arms of the elevated-plusmaze (a conflict test that probes anxiolytic activity) as a function of the dose of (-)nicotine administered to the mice.
FIG. 1B is a graph of time mice spend in the open arms of the elevated-plusmaze as a function of the administration of (+)2-methylpiperidine (0.1 mg/kg) or (-)nicotine administered separately or in combination.
The mouse elevated-plus maze is a conflict test that probes anxiolytic activity (Lister, Pyschopharmacology, 1987, 92:180). It is based on the fact that exposure of mice to an elevated open arm leads to an avoidance response considerably stronger than that evoked by exposure to an enclosed arm.
The apparatus required to perform this test is made of plexiglass and consists of two open arms (17×8 cm) and two enclosed arms (17×8×15 cm) extending from a central platform (8×8 cm). It is mounted on an opaque plexiglass base rising 39 cm above the floor. Mice are released on one of the open arms and the time spent in the open and enclosed arms is recorded during a 5 min. test period.
CD1 mice (n=8 per group) received systemic (-)nicotine injections (0, 0.03, 0.1 or 0.3 mg/kg, IP) fifteen minutes before they were allowed to explore the plus-maze for a 5 minute test period.

Adult male CD1 mice = assay: Habituation / locomotor activity in automated activity monitors; assay type: in vivo, mouse; conditions: for locomotor activity, first 10 min after introduction to the novel environment: Saline=3680±169
Procedure: Adult male CD1 mice (n=8/group) were injected with (+)2-methylpiperidine (0, 1.0, 3.0 or 10.0 mg/kg, i.p.) immediately prior or 60 min. prior to placement in automated activity monitors (Omnitech, Columbus, Ohio). These enclosures, measuring 40×40×42 cm, are equipped with a series of photocells and generate measurements of a variety of locomotor activities.

[5] = Hypothermia: rectal temperature of mice; assay type: in vivo, mouse; conditions: i.p.; for Rectal temperature 15 min. later: saline 38.3 ± 0.1, mean ± S.E.M.
Procedure: Adult male CD1 mice (n=5-7/group) were injected with (+)2-methylpiperidine (0, 10 or 100 mg/kg, i.p.) and rectal temperatures were assessed (YSI Model 43 TA) 15 min. later.

male CD1 mice = assay: Acute lethality in mice within 24 hours; assay type: in vivo, mouse; conditions: for Deaths in 24 hours / tolerability: i.p.; for Deaths in 24 hours: mandelic acid salt, deaths/animals; for tolerability: 30 and 100 mg/kg
Text: Compounds were given as the respective mandelic acid salts.

mouse = assay: (-)Nicotine induced mouse lethality after pretreatment; assay type: in vivo
[6] = Combined effects of (-)nicotine and (+)2-methylpiperidine on rectal temperatures of mice; assay type: in vivo, mouse; conditions: for Rectal temperature: mean ± S.E.M.
rat brain receptor sites = conditions: cited from earlier work
[7] = (-)Nicotine induced mouse lethality after pretreatment; assay type: in vivo; conditions: mouse, in vivo, ip; saline pretreatment; read-out: LD50 [95% C.I.] of (-)nicotine
CD1 mice [8] = conditions: known anxiolytic drug, background of the test; cited from earlier work
[9] = 0.1 mg/kg, dose 0: (+) 100 (10), (-) 100 (13)
[10] = 0.1 mg/kg, dose 0: (+) 153 (11), (-) 130 (8)
[11] = 0.1 mg/kg, dose 0: (+) 76 (3), (-) 90 (6)
[12] = pretreatment 10.0 mg/kg, (-)nicotine 3 mg/kg
[13] = pretreatment 10.0 mg/kg, (-)nicotine 6 mg/kg
[14] = pretreatment 10.0 mg/kg, (-)nicotine 9 mg/kg

CC1CCCCN1 (racemic) [(+)2-methylpiperidine, (+)-2-methylpiperidine]
Resting Cortical CBF, % of Resting CONTROL (nicotinic receptor [1]; [9]): 126 (15) % | Resting Cortical CBF, % of Resting CONTROL (nicotinic receptor [1]; 0.3 mg/kg): 133 (22) % | Resting Cortical CBF, % of Resting CONTROL (nicotinic receptor [1]; 1.0 mg/kg): 146 (28) % | Resting Cortical CBF, % of Resting CONTROL (nicotinic receptor [1]; 3.0 mg/kg): 140 (27) % | effect on resting CBF (nicotinic receptor [1]; listed as (+)2-MP): effective in enhancing resting CBF | effect on resting CBF (nicotinic receptor [1]; listed as (+)-2MP): enhanced | BF-Elicited CBF Response, % of Resting Cortical CBF (nicotinic receptor [2]; [10]): 203 (21) % | BF-Elicited CBF Response, % of Resting Cortical CBF (nicotinic receptor [2]; 0.3 mg/kg): 222 (20) % | BF-Elicited CBF Response, % of Resting Cortical CBF (nicotinic receptor [2]; 1.0 mg/kg): 222 (23) % | BF-Elicited CBF Response, % of Resting Cortical CBF (nicotinic receptor [2]; 3.0 mg/kg): 220 (19) % | effect on BF-elicited CBF response (nicotinic receptor [2]; listed as (+)2-MP): effective in enhancing resting CBF and the BF-elicited CBF response | effect on BF-elicited CBF response (nicotinic receptor [2]; listed as (+)-2MP): enhanced | Mean Arterial Pressure (MAP) [3, 11]: 82 (6) mmHg | Mean Arterial Pressure (MAP) ([3]; 0.3 mg/kg): 87 (5) mmHg | Mean Arterial Pressure (MAP) ([3]; 1.0 mg/kg): 92 (7) mmHg | Mean Arterial Pressure (MAP) ([3]; 3.0 mg/kg): 87 (7) mmHg | effect on mean arterial pressure / blood pressure [3]: no overt on blood pressure | effect on mean arterial pressure / blood pressure ([3]; listed as (+)2-MP): No remarkable effects | anxiolytic activity in combination with a non-effective dose of (-)nicotine (CD1 mice [4]; (+)2-methylpiperidine 0.1 mg/kg, IP, 5 min prior to (-)nicotine (FIG. 1B), n=8): able to enhance the anxiolytic activity of a non-effective dose of (-)nicotine | locomotor activity, first 10 min after introduction to the novel environment (Adult male CD1 mice; 3.0 mg/kg, i.p., 60 min prior): 3402±164 activity counts | locomotor activity, first 10 min after introduction to the novel environment (Adult male CD1 mice; 10 mg/kg, i.p., 60 min prior): 3349±126 activity counts | effect on the habituation process (Adult male CD1 mice; 1.0, 3.0 or 10.0 mg/kg, i.p., drug-by-time interaction p<0.02): dose-related enhancement of the habituation process | effect on locomotor activity (impairment or sedation) (Adult male CD1 mice; 3.0 or 10.0 mg/kg, 60 min prior, first 10 min): did not significantly decrease the high level of locomotor activity | Rectal temperature 15 min. later ([5]; 10 mg/kg, baseline 38.2 ± 0.1): 38.2 ± 0.1 °C | Rectal temperature 15 min. later ([5]; 100 mg/kg, baseline 38.3 ± 0.1): 38.2 ± 0.2 °C | effect on rectal temperature ([5]; 10 or 100 mg/kg, 15 min, as well as 60 and 120 min later): without effect | Deaths in 24 hours (male CD1 mice; 30 mg/kg): 0/5 | Deaths in 24 hours (male CD1 mice; 100 mg/kg): 0/5 | tolerability (male CD1 mice): well tolerated by male CD1 mice, and did not cause any deaths within 24 hours | effect on the lethality elicited by (-)nicotine (mouse; i.p. (-)nicotine, result in words): did not potentiate the lethality; also recorded: does not potentiate (-)nicotine induced acute lethality | DEATHS/24 hours (mouse; pretreatment 0.1 mg/kg, (-)nicotine 3 mg/kg): 0/6 | DEATHS/24 hours (mouse; pretreatment 0.1 mg/kg, (-)nicotine 6 mg/kg): 1/6 | DEATHS/24 hours (mouse; pretreatment 0.1 mg/kg, (-)nicotine 9 mg/kg): 2/6 | DEATHS/24 hours (mouse; [12]): 0/6 | DEATHS/24 hours (mouse; [13]): 1/8 | DEATHS/24 hours (mouse; [14]): 3/6 | Rectal temperature ([6]; (+)2-MP 0.1 mg/kg (so in the source) pretreatment, then (-)nicotine 1.0 mg/kg, * p<0.05): 36.0 ± 0.7 °C | Rectal temperature ([6]; (+)2-MP 1.0 mg/kg pretreatment, then (-)nicotine 0.3 mg/kg): 37.8 ± 0.2 °C | Rectal temperature ([6]; (+)2-MP 10.0 mg/kg pretreatment, then (-)nicotine 0.3 mg/kg): 37.5 ± 0.3 °C | Rectal temperature ([6]; (+)2-MP 10.0 mg/kg pretreatment, then (-)nicotine 1.0 mg/kg, * p<0.05): 36.5 ± 0.5 °C | effect on the hypothermic response to (-)nicotine ([6]; (+)2-methylpiperidine 1 and 10 mg/kg, i.p., 3 min. prior to (-)nicotine): did not potentiate the hypothermic response to (-)nicotine; also recorded: the hypothermic response of the low dose of (-)nicotine (0.3 mg/kg) was actually attenuated; also recorded: the higher dose of (-)nicotine was unaffected | enhancement of the binding of nicotine / nicotinic ligands (rat brain receptor sites; Sloan et al. 1985, listed as (+)isomer of (±)2-methylpiperidine): enhances the binding of nicotinic ligands to rat brain receptor sites

CC1CCCCN1 (racemic) [(±)-2-methylpiperidine, reference compound]
enhancement of the binding of nicotine / nicotinic ligands (rat brain receptor sites; Sloan et al. 1985): high degree of specificity in enhancing the binding of nicotine in the rat brain

CC1CCCCN1 (single isomer, unassigned; (-)) [(-)2-methylpiperidine, reference compound]
Resting Cortical CBF, % of Resting CONTROL (nicotinic receptor [1]; [9]): 99 (32) % | Resting Cortical CBF, % of Resting CONTROL (nicotinic receptor [1]; 0.3 mg/kg): 86 (29) % | Resting Cortical CBF, % of Resting CONTROL (nicotinic receptor [1]; 1.0 mg/kg): 74 (27) % | Resting Cortical CBF, % of Resting CONTROL (nicotinic receptor [1]; 3.0 mg/kg): 70 (30) % | effect on resting CBF (nicotinic receptor [1]): no ability to enhance | BF-Elicited CBF Response, % of Resting Cortical CBF (nicotinic receptor [2]; [10]): 113 (30) % | BF-Elicited CBF Response, % of Resting Cortical CBF (nicotinic receptor [2]; 0.3 mg/kg): 101 (28) % | BF-Elicited CBF Response, % of Resting Cortical CBF (nicotinic receptor [2]; 1.0 mg/kg): 88 (26) % | BF-Elicited CBF Response, % of Resting Cortical CBF (nicotinic receptor [2]; 3.0 mg/kg): 81 (30) % | effect on BF-elicited CBF response (nicotinic receptor [2]): no ability to enhance | Mean Arterial Pressure (MAP) [3, 11]: 78 (4) mmHg | Mean Arterial Pressure (MAP) ([3]; 0.3 mg/kg): 83 (4) mmHg | Mean Arterial Pressure (MAP) ([3]; 1.0 mg/kg): 80 (8) mmHg | Mean Arterial Pressure (MAP) ([3]; 3.0 mg/kg): 73 (4) mmHg | Deaths in 24 hours (male CD1 mice; 30 mg/kg): 0/5 | Deaths in 24 hours (male CD1 mice; 100 mg/kg): 0/5 | tolerability (male CD1 mice): well tolerated by male CD1 mice, and did not cause any deaths within 24 hours | DEATHS/24 hours (mouse; [12]): 0/6 | DEATHS/24 hours (mouse; [13]): 0/6 | DEATHS/24 hours (mouse; [14]): 4/6

CN1CCCC1c1cccnc1 (single isomer, unassigned; (-)) [(-)nicotine, reference compound]
time spent in the open arms (anxiolytic effect) (CD1 mice [4]; (-)nicotine 0.1 and 0.3 mg/kg, IP, 15 min before test, p<0.05 vs saline, n=8): significant increase in the time spent by the mice in the open arms | anxiolytic activity of the low (-)nicotine dose given alone (CD1 mice [4]; (-)nicotine dose used in the combination of FIG. 1B): non-effective | death of animals (male CD1 mice; (-)nicotine 9.0 mg/kg): 4 out of 6 | signs of cholinostimulation (male CD1 mice; (-)nicotine 9.0 mg/kg): dyspnea and decreased activity | LD50 [7]: 7.7 mg/kg | DEATHS/24 hours (mouse; (-)nicotine 3 mg/kg, saline pretreatment): 0/6 | DEATHS/24 hours (mouse; (-)nicotine 6 mg/kg, saline pretreatment): 2/8 | DEATHS/24 hours (mouse; (-)nicotine 9 mg/kg, saline pretreatment): 4/6 | effect on temperature ([6]; (-)nicotine 0.3 and 1.0 mg/kg, i.p.): significantly lowered temperature | Rectal temperature ([6]; saline pretreatment, (-)nicotine 0.3 mg/kg, * p<0.05 vs saline (38.3 ± 0.1)): 36.9 ± 0.2 °C | Rectal temperature ([6]; saline pretreatment, (-)nicotine 1.0 mg/kg, * p<0.05 vs saline (38.3 ± 0.1)): 36.5 ± 0.6 °C

CN1C(=O)CN=C(c2ccccc2)c2cc(Cl)ccc21 [diazepam]
time spent in open arms, known anxiolytic drugs (CD1 mice [8]): increased in a dose-related way
